Columns and labels:
A549-ACE2 [1] = assay: phospholipidosis EC50; higher = less potent phospholipidosis inducer
U2OS [2] = assay: cell viability relative to DMSO; higher = less toxic; details: 72 h
Vero E6 [3] = assay: as above; details: 72 h
Calu-3 [4] = assay: as above; details: 72 h
Caco-2 [5] = assay: as above; details: 72 h
HepG2 [6] = assay: as above; details: 72 h
[7] = test system: A549-ACE2 infected with SARS-CoV-2; assay: morphology score (similarity to uninfected cells); higher = more like uninfected cells; details: 24 h
[8] = test system: A549-ACE2 infected with SARS-CoV-2; assay: cell count relative to DMSO; higher = less toxic; details: 24 h
A549-ACE2 [9] = assay: drug-induced phospholipidosis relative to tamoxifen; higher = more phospholipidosis
[10] = test system: A549-ACE2 infected with SARS-CoV-2; assay: SARS-CoV-2 infection rate relative to DMSO; higher = more infection; details: 24 h
U2OS [11] = assay: drug sensitivity score (DSS) for viability; higher = more toxic; extreme values may be limits of the assay; details: 72 h
Vero E6 [12] = assay: as above; details: 72 h
Calu-3 [13] = assay: as above; details: 72 h
Caco-2 [14] = assay: as above; details: 72 h
HepG2 [15] = assay: as above; details: 72 h
U2OS [16] = assay: relative viability EC50 (midpoint between 100% and the lowest measured viability); higher = less toxic; details: 72 h
Vero E6 [17] = assay: as above; details: 72 h
Calu-3 [18] = assay: as above; details: 72 h
HepG2 [19] = assay: as above; details: 72 h
Caco-2 [20] = assay: as above; details: 72 h

CCOc1ccc(-c2nc(-c3cccc4c3CCC4NCCO)no2)cc1OCC (stereo not drawn) [CYM-5442]
Details	SARS-CoV-2 infection rate [%]	cell count [%]	cell viability [%]	morphology score	phospholipidosis EC50 [µM]
A549-ACE2 [1], 24 h	–	–	–	–	2.26
A549-ACE2 [1], 48 h	–	–	–	–	3.87
A549-ACE2 [1], 72 h	–	–	–	–	4.72
Caco-2 [5], 1 nM	–	–	91	–	–
Caco-2 [5], 10 nM	–	–	96.9	–	–
Caco-2 [5], 100 nM	–	–	102	–	–
Caco-2 [5], 1000 nM	–	–	99.2	–	–
Caco-2 [5], 10000 nM	–	–	71.7	–	–
Calu-3 [4], 1 nM	–	–	94.6	–	–
Calu-3 [4], 10 nM	–	–	95.2	–	–
Calu-3 [4], 100 nM	–	–	91.2	–	–
Calu-3 [4], 1000 nM	–	–	104	–	–
Calu-3 [4], 10000 nM	–	–	92.8	–	–
HepG2 [6], 1 nM	–	–	97.5	–	–
HepG2 [6], 10 nM	–	–	101	–	–
HepG2 [6], 100 nM	–	–	90.5	–	–
HepG2 [6], 1000 nM	–	–	97.2	–	–
HepG2 [6], 10000 nM	–	–	78.8	–	–
U2OS [2], 1 nM	–	–	99	–	–
U2OS [2], 10 nM	–	–	95.7	–	–
U2OS [2], 100 nM	–	–	103	–	–
U2OS [2], 1000 nM	–	–	97	–	–
U2OS [2], 10000 nM	–	–	90.5	–	–
Vero E6 [3], 1 nM	–	–	90.7	–	–
Vero E6 [3], 10 nM	–	–	102	–	–
Vero E6 [3], 100 nM	–	–	84.5	–	–
Vero E6 [3], 1000 nM	–	–	94.7	–	–
Vero E6 [3], 10000 nM	–	–	99.1	–	–
[7], 0.3 µM	–	–	–	0.19	–
[7], 3 µM	–	–	–	0.72	–
[7], 10 µM	–	–	–	0.84	–
[7], 30 µM	–	–	–	0.63	–
[8], 0.3 µM	–	100	–	–	–
[8], 3 µM	–	118	–	–	–
[8], 10 µM	–	113	–	–	–
[8], 30 µM	–	104	–	–	–
[10], 0.3 µM	96	–	–	–	–
[10], 3 µM	55	–	–	–	–
[10], 10 µM	13	–	–	–	–
[10], 30 µM	19	–	–	–	–

drug-induced phospholipidosis [%], A549-ACE2 [9]
Details	0.3 µM	0.833333 µM	3.33333 µM	6.66667 µM	10 µM	30 µM
24 h	3.28	18.4	62.3	81.5	100	87.8
48 h	3.02	11.2	44.6	72.9	96	93.9
72 h	0.284	11.6	36.7	67.4	106	99.3

Details	drug sensitivity score	relative viability EC50 [µM]
Caco-2 [14]	1.3	–
Calu-3 [13]	0	–
Calu-3 [18]	–	> 10
HepG2 [15]	1.1	–
HepG2 [19]	–	> 10
U2OS [11]	0	–
U2OS [16]	–	> 10
Vero E6 [12]	0	–
Vero E6 [17]	–	> 10

CN(C)c1ccccc1CN1CCCN(Cc2ccccc2N(C)C)C1c1ccncc1 [GANT-61]
Details	SARS-CoV-2 infection rate [%]	cell count [%]	cell viability [%]	morphology score	phospholipidosis EC50 [µM]
A549-ACE2 [1], 24 h	–	–	–	–	3.39
A549-ACE2 [1], 48 h	–	–	–	–	4.52
A549-ACE2 [1], 72 h	–	–	–	–	6.2
Caco-2 [5], 1 nM	–	–	94.5	–	–
Caco-2 [5], 10 nM	–	–	99.9	–	–
Caco-2 [5], 100 nM	–	–	92.7	–	–
Caco-2 [5], 1000 nM	–	–	99	–	–
Caco-2 [5], 10000 nM	–	–	95.9	–	–
Calu-3 [4], 1 nM	–	–	111	–	–
Calu-3 [4], 10 nM	–	–	109	–	–
Calu-3 [4], 100 nM	–	–	110	–	–
Calu-3 [4], 1000 nM	–	–	88.2	–	–
Calu-3 [4], 10000 nM	–	–	47.1	–	–
HepG2 [6], 1 nM	–	–	100	–	–
HepG2 [6], 10 nM	–	–	105	–	–
HepG2 [6], 100 nM	–	–	97.5	–	–
HepG2 [6], 1000 nM	–	–	95.3	–	–
HepG2 [6], 10000 nM	–	–	71.1	–	–
U2OS [2], 1 nM	–	–	97.5	–	–
U2OS [2], 10 nM	–	–	94	–	–
U2OS [2], 100 nM	–	–	95.8	–	–
U2OS [2], 1000 nM	–	–	100	–	–
U2OS [2], 10000 nM	–	–	93.5	–	–
Vero E6 [3], 1 nM	–	–	97.7	–	–
Vero E6 [3], 10 nM	–	–	101	–	–
Vero E6 [3], 100 nM	–	–	96	–	–
Vero E6 [3], 1000 nM	–	–	95.6	–	–
Vero E6 [3], 10000 nM	–	–	95	–	–
[7], 0.3 µM	–	–	–	-0.11	–
[7], 3 µM	–	–	–	0.59	–
[7], 10 µM	–	–	–	0.68	–
[7], 30 µM	–	–	–	0.26	–
[8], 0.3 µM	–	95	–	–	–
[8], 3 µM	–	110	–	–	–
[8], 10 µM	–	117	–	–	–
[8], 30 µM	–	109	–	–	–
[10], 0.3 µM	99	–	–	–	–
[10], 3 µM	64	–	–	–	–
[10], 10 µM	33	–	–	–	–
[10], 30 µM	41	–	–	–	–

drug-induced phospholipidosis [%], A549-ACE2 [9]
Details	0.3 µM	0.833333 µM	3.33333 µM	6.66667 µM	10 µM	30 µM
24 h	3.13	5.25	60.1	90.1	94.9	116
48 h	6.4	5.75	51.9	94.9	118	135
72 h	6.86	6.64	47	96.1	125	–

Details	drug sensitivity score	relative viability EC50 [µM]
Caco-2 [14]	0	–
Caco-2 [20]	–	> 10
Calu-3 [13]	4.7	–
Calu-3 [18]	–	1.65
HepG2 [15]	2	–
U2OS [11]	0	–
U2OS [16]	–	> 10
Vero E6 [12]	0	–
Vero E6 [17]	–	> 10

Reference: the supplement of paper PMC13380429
